Results taken from publication PMC5797143, “Epigenetic modulation of inflammation and synaptic plasticity promotes resilience against stress in mice” (Nature Communications, 2018).
Read-outs that look alike come from different tables or passages of the source.

Key:
[1] = Brain homogenate stability; type: in vitro ADME
Method: Compound stability in mouse and human plasma and in mouse brain homogenate were conducted, [45]. Specifically, Mal-gluc or DHCA was incubated in duplicate with plasma at 37 °C and samples were taken at various time points and mixed with three volumes of ice-cold Stop Solution (methanol containing propranolol, diclofenac, or other internal standard). Samples were centrifuged to remove precipitated protein, and the supernatants were analyzed by LC/MS/MS to quantitate for remaining test compound. Data are converted to percentage remaining by dividing by the time zero concentration value. Data are fit to a first-order decay model to determine half-life. Plasma protein binding were conducted using both mouse and human plasma.

CYP2C8 = target: T1, CYP2C8 (Homo sapiens, UniProt P10632); test: CYP inhibition in human liver microsomes; type: in vitro ADME; details: read-out: CPY450 inhibition (IC50), CYP2C8
T1 construct: from tissue; host or cells: human liver microsomes
Method: (§1) CYP inhibition was tested in isolated microsomes for CYP2D6, CYP3A4, CYP1A2, CYP2C9, CYP2C19, CYP2C8, and CYP2B6[66]. Briefly, increasing concentrations of Mal-gluc or DHCA were incubated with human liver microsomes (HLM) in the presence of 2 mM NADPH in 100 mM potassium phosphate (pH 7.4) containing 5 mM magnesium chloride and a specific probe substrate for different CYPs: tacrine (CYP1A2), amodiaquine (CYP2C8), tolbutamide (CYP2C9), S-mephenytoin (CYP2C19), dextromethorphan (CYP2D6), midazolam/testosterone (CYP3A4/5), or bupropion (CYP2B6). CYP-specific inhibitors were included alongside the test compound as a positive control, including α-naphthoflavone (CYP1A2), quercetin (CYP2C8), ketoconazole (CYP3A4/5), quinidine (CYP2D6), sulfaphenazole (CYP2C9), and ticlopidine (CYP2C19, CYP2B6). After incubation at 37 °C, the reactions were terminated by addition of a methanol-containing internal standard (propranolol) for analytical quantification. The quenched samples were then incubated at 4 °C for 10 min and centrifuged at 4 °C for 10 min. The supernatant was removed and the probe substrate metabolite was analyzed by LC-MS/MS (Agilent Technologies Triple Quad LC-MS/MS).

CYP3A4 = CYP3A4 (Homo sapiens, UniProt P08684); test: CYP inhibition in human liver microsomes; type: in vitro ADME; details: read-out: CPY450 inhibition (IC50), CYP3A4
Method: as §1

CYP2C19 = target: T2, CYP2C19 (Homo sapiens, UniProt P33261); test: CYP inhibition in human liver microsomes; type: in vitro ADME; details: read-out: CPY450 inhibition (IC50), CYP2C19
T2 construct: from tissue; host or cells: human liver microsomes
T2 sequence (P33261 whole entry): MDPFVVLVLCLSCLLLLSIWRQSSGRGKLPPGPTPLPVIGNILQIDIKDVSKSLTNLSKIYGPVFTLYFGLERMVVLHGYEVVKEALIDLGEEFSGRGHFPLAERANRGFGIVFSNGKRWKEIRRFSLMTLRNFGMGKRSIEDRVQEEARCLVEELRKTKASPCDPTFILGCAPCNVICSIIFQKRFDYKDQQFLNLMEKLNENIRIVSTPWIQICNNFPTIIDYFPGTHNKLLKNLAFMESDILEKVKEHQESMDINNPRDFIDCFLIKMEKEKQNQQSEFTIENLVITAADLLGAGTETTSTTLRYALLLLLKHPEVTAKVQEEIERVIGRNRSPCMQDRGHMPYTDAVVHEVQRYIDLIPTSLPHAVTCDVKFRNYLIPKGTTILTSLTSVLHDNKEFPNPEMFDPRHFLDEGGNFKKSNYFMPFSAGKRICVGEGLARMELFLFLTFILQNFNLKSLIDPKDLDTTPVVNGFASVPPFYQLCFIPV
Method: as §1

CYP2B6 = target: T3, CYP2B6 (Homo sapiens, UniProt P20813); test: CYP inhibition in human liver microsomes; type: in vitro ADME; details: read-out: CPY450 inhibition (IC50), CYP2B6
T3 construct: from tissue; host or cells: human liver microsomes
Method: as §1

CYP2C9 = target: T4, CYP2C9 (Homo sapiens, UniProt P11712); test: CYP inhibition in human liver microsomes; type: in vitro ADME; details: read-out: CPY450 inhibition (IC50), CYP2C9
T4 construct: from tissue; host or cells: human liver microsomes
T4 sequence (P11712 whole entry): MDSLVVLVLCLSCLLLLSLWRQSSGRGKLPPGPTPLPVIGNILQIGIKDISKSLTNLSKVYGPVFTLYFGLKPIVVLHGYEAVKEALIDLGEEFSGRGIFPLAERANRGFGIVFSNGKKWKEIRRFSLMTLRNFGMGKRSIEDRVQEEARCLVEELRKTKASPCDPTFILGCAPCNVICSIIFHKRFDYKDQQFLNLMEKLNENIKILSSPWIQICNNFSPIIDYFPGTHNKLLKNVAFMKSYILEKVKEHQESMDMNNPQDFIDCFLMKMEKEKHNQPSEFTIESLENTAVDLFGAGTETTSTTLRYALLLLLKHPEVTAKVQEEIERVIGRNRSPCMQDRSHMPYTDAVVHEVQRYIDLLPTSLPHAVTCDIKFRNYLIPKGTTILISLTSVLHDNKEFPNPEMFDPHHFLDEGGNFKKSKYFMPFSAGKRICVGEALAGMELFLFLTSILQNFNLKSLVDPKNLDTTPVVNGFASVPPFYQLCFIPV
Method: as §1

CYP2D6 = target: T5, CYP2D6 (Homo sapiens, UniProt P10635); test: CYP inhibition in human liver microsomes; type: in vitro ADME; details: read-out: CPY450 inhibition (IC50), CYP2D6
T5 construct: from tissue; host or cells: human liver microsomes
Method: as §1

CYP1A2 = target: T6, CYP1A2 (Homo sapiens, UniProt P05177); test: CYP inhibition in human liver microsomes; type: in vitro ADME; details: read-out: CPY450 inhibition (IC50), CYP1A2
T6 construct: from tissue; host or cells: human liver microsomes
Method: as §1

M4 (muscarinic receptor) = target: T7, M4 (muscarinic receptor) (Homo sapiens, UniProt P08173); test: Radioligand binding assay; details: 10 µM; HEK membrane fractions; quadruplicate
T7 construct: purchased NIMH Psychoactive Drug Screening Program (PDSP)
Method: (§2) Radioligand binding assays were performed as previously described. Briefly, crude membrane fractions prepared from a stable HEK cell line expressing recombinant receptors were mixed with a radiolabeled specific ligand and 10 µM of competitor compound (DHCA, Mal-gluc, or non-specific ligand). The percentage of radioligand binding was subsequently measured.

DOR (δ-opioid receptor) = target: T8, DOR (δ-opioid receptor) (Homo sapiens, UniProt P41143); test: Radioligand binding assay; details: 10 µM; HEK membrane fractions; quadruplicate
T8 construct: purchased NIMH Psychoactive Drug Screening Program (PDSP)
Method: as §2

[2] = target: T9, Beta1 (beta adrenergic receptor) (Homo sapiens, UniProt P08588); test: Radioligand binding assay; details: 10 µM; HEK membrane fractions; quadruplicate
T9 construct: purchased NIMH Psychoactive Drug Screening Program (PDSP)
Method: as §2

[3] = target: T10, 5-HT2C (serotonin receptor) (Homo sapiens, UniProt P28335); test: Radioligand binding assay; details: 10 µM; HEK membrane fractions; quadruplicate
T10 construct: purchased NIMH Psychoactive Drug Screening Program (PDSP)
Method: as §2

[4] = target: T11, DAT (dopamine transporter) (Homo sapiens, UniProt Q01959); test: Radioligand binding assay; details: 10 µM; HEK membrane fractions; quadruplicate
T11 construct: purchased NIMH Psychoactive Drug Screening Program (PDSP)
T11 sequence (Q01959 whole entry): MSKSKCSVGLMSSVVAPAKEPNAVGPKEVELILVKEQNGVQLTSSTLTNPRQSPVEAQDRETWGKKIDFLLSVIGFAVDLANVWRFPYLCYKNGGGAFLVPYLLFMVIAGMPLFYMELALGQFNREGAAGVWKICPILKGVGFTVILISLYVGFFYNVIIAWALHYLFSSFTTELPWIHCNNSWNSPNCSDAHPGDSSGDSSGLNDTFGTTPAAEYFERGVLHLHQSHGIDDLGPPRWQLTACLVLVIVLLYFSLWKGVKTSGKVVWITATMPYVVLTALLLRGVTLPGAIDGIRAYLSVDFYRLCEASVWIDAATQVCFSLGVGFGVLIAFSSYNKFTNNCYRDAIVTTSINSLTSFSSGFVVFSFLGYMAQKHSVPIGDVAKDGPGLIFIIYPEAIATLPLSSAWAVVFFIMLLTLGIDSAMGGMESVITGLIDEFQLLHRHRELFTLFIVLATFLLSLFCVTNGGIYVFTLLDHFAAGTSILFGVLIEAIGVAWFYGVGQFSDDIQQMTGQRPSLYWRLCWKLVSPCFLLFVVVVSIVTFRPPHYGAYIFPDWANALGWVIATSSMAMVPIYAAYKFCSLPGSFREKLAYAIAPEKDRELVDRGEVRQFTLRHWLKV
Method: as §2

[5] = target: T12, 5-hT1e (serotonin receptor) (Homo sapiens, UniProt P28566); test: Radioligand binding assay; details: 10 µM; HEK membrane fractions; quadruplicate
T12 construct: purchased NIMH Psychoactive Drug Screening Program (PDSP)
T12 sequence (P28566 whole entry): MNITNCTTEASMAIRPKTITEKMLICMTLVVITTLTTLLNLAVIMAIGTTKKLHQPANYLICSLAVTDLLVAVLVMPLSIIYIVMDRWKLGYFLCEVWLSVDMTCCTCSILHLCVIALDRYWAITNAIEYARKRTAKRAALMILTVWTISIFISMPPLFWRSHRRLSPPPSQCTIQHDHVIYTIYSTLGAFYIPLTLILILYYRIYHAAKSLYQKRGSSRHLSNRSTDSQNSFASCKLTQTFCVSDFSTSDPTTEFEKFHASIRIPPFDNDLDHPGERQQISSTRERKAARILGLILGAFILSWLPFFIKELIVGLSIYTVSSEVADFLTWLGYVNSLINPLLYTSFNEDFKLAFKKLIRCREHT
Method: as §2

M2 (muscarinic receptor) = target: T13, M2 (muscarinic receptor) (Homo sapiens, UniProt P08172); test: Radioligand binding assay; details: 10 µM; HEK membrane fractions; quadruplicate
T13 construct: purchased NIMH Psychoactive Drug Screening Program (PDSP)
T13 sequence (P08172 whole entry): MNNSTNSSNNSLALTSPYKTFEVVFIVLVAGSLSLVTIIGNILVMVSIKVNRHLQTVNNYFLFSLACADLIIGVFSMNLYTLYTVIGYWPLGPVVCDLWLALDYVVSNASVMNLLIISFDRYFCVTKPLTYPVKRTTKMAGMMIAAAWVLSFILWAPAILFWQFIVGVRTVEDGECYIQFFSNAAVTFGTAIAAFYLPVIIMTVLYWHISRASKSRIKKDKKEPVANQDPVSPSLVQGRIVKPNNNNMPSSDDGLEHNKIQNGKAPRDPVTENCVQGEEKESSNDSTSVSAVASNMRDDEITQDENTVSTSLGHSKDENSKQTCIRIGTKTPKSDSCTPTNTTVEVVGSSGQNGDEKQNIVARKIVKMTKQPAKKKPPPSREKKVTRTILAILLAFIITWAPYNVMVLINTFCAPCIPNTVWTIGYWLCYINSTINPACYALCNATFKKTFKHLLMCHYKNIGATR
Method: as §2

[6] = target: T14, SERT (serotonin transporter) (Homo sapiens, UniProt P31645); test: Radioligand binding assay; details: 10 µM; HEK membrane fractions; quadruplicate
T14 construct: purchased NIMH Psychoactive Drug Screening Program (PDSP)
T14 sequence (P31645 whole entry): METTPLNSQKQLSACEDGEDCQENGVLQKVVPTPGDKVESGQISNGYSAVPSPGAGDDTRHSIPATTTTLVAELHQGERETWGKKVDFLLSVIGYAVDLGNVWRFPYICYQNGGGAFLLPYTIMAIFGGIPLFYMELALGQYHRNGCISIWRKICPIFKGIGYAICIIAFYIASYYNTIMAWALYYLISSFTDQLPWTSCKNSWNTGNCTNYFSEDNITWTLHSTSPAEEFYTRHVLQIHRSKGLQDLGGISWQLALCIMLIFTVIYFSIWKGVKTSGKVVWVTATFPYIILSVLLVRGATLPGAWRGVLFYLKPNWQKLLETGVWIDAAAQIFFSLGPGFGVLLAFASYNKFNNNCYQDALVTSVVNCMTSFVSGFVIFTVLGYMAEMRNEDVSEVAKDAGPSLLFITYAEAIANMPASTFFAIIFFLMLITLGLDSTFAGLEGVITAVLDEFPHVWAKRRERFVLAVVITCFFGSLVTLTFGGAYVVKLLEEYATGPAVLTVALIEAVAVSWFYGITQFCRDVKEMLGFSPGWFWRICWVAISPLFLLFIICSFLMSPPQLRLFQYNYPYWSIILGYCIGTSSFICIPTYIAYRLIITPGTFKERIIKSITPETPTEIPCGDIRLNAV
Method: as §2

M1 (muscarinic receptor) = target: T15, M1 (muscarinic receptor) (Homo sapiens, UniProt P11229); test: Radioligand binding assay; details: 10 µM; HEK membrane fractions; quadruplicate
T15 construct: purchased NIMH Psychoactive Drug Screening Program (PDSP)
Method: as §2

[7] = target: T16, 5-HT1D (serotonin receptor) (Homo sapiens, UniProt P28221); test: Radioligand binding assay; details: for Binding activity, 5-HT1D (percentage): 10 µM, HEK membrane fractions, quadruplicate
T16 construct: expressed in transfected cells; crude membrane fractions
T16 sequence (P28221 whole entry, species assumed): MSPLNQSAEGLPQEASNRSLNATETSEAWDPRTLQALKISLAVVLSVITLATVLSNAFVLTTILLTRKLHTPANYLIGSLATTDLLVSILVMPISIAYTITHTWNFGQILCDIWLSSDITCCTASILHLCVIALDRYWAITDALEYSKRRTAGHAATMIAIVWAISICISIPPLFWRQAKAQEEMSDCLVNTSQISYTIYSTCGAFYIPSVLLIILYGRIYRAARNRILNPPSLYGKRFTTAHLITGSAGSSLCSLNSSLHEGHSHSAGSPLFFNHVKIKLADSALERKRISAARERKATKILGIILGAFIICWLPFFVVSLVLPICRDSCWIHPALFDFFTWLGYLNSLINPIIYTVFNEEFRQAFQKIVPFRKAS
Method: as §2

[8] = tested on: PBR (peripheral benzodiazepine receptor); test: Radioligand binding assay; details: 10 µM; HEK membrane fractions; quadruplicate
Method: as §2

[9] = target: T17, Beta3 (beta adrenergic receptor) (Homo sapiens, UniProt P13945); test: Radioligand binding assay; details: 10 µM; HEK membrane fractions; quadruplicate
T17 construct: purchased NIMH Psychoactive Drug Screening Program (PDSP)
Method: as §2

D4 (dopamine receptor) = target: T18, D4 (dopamine receptor) (Homo sapiens, UniProt P21917); test: Radioligand binding assay; details: 10 µM; HEK membrane fractions; quadruplicate
T18 construct: purchased NIMH Psychoactive Drug Screening Program (PDSP)
Method: as §2

[10] = target: T19, Alpha2C (alpha adrenergic receptor) (Homo sapiens, UniProt P18825); test: Radioligand binding assay; details: 10 µM; HEK membrane fractions; quadruplicate
T19 construct: purchased NIMH Psychoactive Drug Screening Program (PDSP)
Method: as §2

[11] = target: T20, 5-HT7 (serotonin receptor) (Homo sapiens, UniProt P34969); test: Radioligand binding assay; details: 10 µM; HEK membrane fractions; quadruplicate
T20 construct: purchased NIMH Psychoactive Drug Screening Program (PDSP)
T20 sequence (P34969 whole entry): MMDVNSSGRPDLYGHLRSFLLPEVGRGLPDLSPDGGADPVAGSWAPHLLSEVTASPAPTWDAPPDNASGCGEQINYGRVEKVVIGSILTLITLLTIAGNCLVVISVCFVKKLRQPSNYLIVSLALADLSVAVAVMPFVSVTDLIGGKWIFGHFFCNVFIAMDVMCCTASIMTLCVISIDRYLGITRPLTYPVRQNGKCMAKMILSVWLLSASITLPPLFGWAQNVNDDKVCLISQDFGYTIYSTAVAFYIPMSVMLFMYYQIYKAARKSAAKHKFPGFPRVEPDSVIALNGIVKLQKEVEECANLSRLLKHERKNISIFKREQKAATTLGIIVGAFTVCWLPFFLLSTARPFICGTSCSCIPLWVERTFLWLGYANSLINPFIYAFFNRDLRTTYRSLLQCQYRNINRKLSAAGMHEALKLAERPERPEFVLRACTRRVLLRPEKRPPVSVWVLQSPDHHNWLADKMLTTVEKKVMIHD
Method: as §2

D3 (dopamine receptor) = target: T21, D3 (dopamine receptor) (Homo sapiens, UniProt P35462); test: Radioligand binding assay; details: 10 µM; HEK membrane fractions; quadruplicate
T21 construct: purchased NIMH Psychoactive Drug Screening Program (PDSP)
Method: as §2

[12] = target: T22, NET (norepinephrine transporter) (Homo sapiens, UniProt P23975); test: Radioligand binding assay; details: 10 µM; HEK membrane fractions; quadruplicate
T22 construct: purchased NIMH Psychoactive Drug Screening Program (PDSP)
T22 sequence (P23975 whole entry): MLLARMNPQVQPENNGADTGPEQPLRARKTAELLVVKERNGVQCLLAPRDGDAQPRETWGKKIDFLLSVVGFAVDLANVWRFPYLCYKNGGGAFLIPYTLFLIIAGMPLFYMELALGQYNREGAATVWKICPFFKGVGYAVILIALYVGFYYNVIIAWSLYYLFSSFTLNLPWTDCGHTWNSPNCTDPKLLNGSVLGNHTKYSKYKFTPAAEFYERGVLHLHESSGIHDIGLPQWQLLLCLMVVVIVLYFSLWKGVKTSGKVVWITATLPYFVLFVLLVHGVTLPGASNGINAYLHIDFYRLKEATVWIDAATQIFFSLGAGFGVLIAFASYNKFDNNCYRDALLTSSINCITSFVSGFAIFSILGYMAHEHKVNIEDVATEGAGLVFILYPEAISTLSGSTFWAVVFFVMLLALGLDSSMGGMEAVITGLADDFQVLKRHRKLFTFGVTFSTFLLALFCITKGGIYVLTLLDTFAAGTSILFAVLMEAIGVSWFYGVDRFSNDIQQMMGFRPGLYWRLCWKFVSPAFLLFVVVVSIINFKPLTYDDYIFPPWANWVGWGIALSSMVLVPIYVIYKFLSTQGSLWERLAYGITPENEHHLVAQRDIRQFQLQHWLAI
Method: as §2

D1 (dopamine receptor) = target: T23, D1 (dopamine receptor) (Homo sapiens, UniProt P21728); test: Radioligand binding assay; details: 10 µM; HEK membrane fractions; quadruplicate
T23 construct: purchased NIMH Psychoactive Drug Screening Program (PDSP)
T23 sequence (P21728 whole entry): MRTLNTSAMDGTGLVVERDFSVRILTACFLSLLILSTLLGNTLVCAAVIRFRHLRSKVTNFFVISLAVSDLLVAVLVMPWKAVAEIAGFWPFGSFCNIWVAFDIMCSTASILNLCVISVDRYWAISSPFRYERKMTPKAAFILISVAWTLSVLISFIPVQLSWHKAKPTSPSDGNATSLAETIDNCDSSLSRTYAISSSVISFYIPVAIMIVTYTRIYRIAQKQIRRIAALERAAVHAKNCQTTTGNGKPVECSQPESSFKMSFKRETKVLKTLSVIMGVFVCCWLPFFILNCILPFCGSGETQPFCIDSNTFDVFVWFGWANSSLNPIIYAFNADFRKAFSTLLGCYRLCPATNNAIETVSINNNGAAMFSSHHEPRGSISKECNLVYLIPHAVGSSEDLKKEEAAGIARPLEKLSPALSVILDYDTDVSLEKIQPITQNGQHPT
Method: as §2

| Structure (SMILES) | IC50 (CYP2C8) | IC50 (CYP2C19) | IC50 (CYP2B6) | IC50 (CYP2C9) | IC50 (CYP2D6) | IC50 (CYP1A2) | Binding activity, M4 (percentage) (M4 (muscarinic receptor)) | Binding activity, DOR (percentage) (DOR (δ-opioid receptor)) | Binding activity, Beta1 (percentage) [2] | Binding activity, 5-HT2C (percentage) [3] | Binding activity, DAT (percentage) [4] | Binding activity, 5-hT1e (percentage) [5] | Binding activity, M2 (percentage) (M2 (muscarinic receptor)) | Binding activity, SERT (percentage) [6] | Binding activity, M1 (percentage) (M1 (muscarinic receptor)) | Binding activity, 5-HT1D (percentage) [7] | Binding activity, PBR (percentage) [8] | Binding activity, Beta3 (percentage) [9] | Binding activity, D4 (percentage) (D4 (dopamine receptor)) | Binding activity, Alpha2C (percentage) [10] | further results |
| --- | --- | --- | --- | --- | --- | --- | --- | --- | --- | --- | --- | --- | --- | --- | --- | --- | --- | --- | --- | --- | --- |
| O=C(O)CCc1ccc(O)c(O)c1 [DHCA, 3(3,4-dihydroxy-phenyl) propionic acid] | > 25 µM | > 25 µM | > 25 µM | > 25 µM | > 25 µM | > 25 µM | 3% | 9.5% | −14.1% | −9.9% | 34.5% | −1.7% | −12.2% | −0.9% | −1.8% | 11.7% | −13.3% | −15.8% | 1.9% | 27.3% | half-life ([1]; mouse): 16.1 min; IC50 (CYP3A4; human, pH 7.4, probe midazolam/testosterone): > 25 µM; Binding activity, 5-HT7 (percentage) [11]: 4.2%; Binding activity, D3 (percentage) (D3 (dopamine receptor)): −18.8%; Binding activity, NET (percentage) [12]: −16.4%; Binding activity, D1 (percentage) (D1 (dopamine receptor)): −3.7% |
| COc1cc(-c2[o+]c3cc(O)cc(O)c3cc2O[C@@H]2O[C@H](CO)[C@@H](O)[C@H](O)[C@H]2O)cc(OC)c1O [Mal-gluc] | > 25 µM | > 25 µM | > 25 µM | > 25 µM | > 25 µM | > 25 µM | −4.6% | −10.2% | −15.5% | −6.9% | −18.2% | 10.3% | 5.2% | 7.8% | −6.2% | 54% | 15.7% | −17.7% | −2% | −11% | Brain homogenate stability, Half-life (mouse homogenate) [1]: 29.4 min; IC50 (CYP3A4): > 25 µM; Ki ([7]; secondary radioligand binding assay, read-out: calculated inhibitory constant (Ki), 5-HT1D): > 10 µM; Binding activity, 5-HT7 (percentage) [11]: −13.5%; Binding activity, D3 (percentage) (D3 (dopamine receptor)): 7.2%; Binding activity, NET (percentage) [12]: −9.4%; Binding activity, D1 (percentage) (D1 (dopamine receptor)): −10.3% |
